Consider 93 compounds from PubChem BioAssay AID1508591.

Each structure is given as a SMILES string.

For this data set the following is noted: rat; liver microsomes; pH 7.4; 15.0 min; 1.0 µM.
Compound `CCc1ccccc1-n1c(SCC(=O)Nc2ccc(C)cc2)nc2n[nH]c(C)c2c1=N` showed a half-life of 1.25 min.

`COc1ccc(CCNC(=O)Cn2c(=O)c3cccn3c3ccc(F)cc32)cc1OC` had a half-life of 1.81 min.

`Cc1ccc(S(=O)(=O)Nc2cnccc2C(=O)NCCc2ccccc2)cc1` came in with a half-life of 4.9 min. This half-life is about 2.7-fold higher than that of the compound before.

`Cc1cc(-c2nnc3n2CCCCC3)c(C)n1-c1ccc(C(F)(F)F)cc1` showed a half-life of 2.1 min.

Compound `COc1ccc(NC(=O)c2c(C)cccc2C)cc1[S+](=O)([O-])N1CCCCCC1` had a half-life of 1.8 min.

`CCOC(=O)c1ccc2c(c1)c(C(C)=O)c(C)n2-c1ccc(OC)cc1` registered a half-life of 1.5 min.

In turn, `NC1CCN(C(=O)C2CCCN(c3nc(-c4ccccc4)nc4c3CCC4)C2)CC1` (stereo not drawn) showed a half-life above 30 min.

For the compound `O=C(c1cccs1)c1nonc1C(=O)c1cccs1`, the half-life was 1.49 min.

Compound `COc1cc(NS(=O)(=O)c2ccc(C)cc2)c(C(=O)Nc2nc(-c3ccccc3)cs2)cc1OC` showed a half-life of 9 min.

As for `O=C1CCCC2=C1C(c1ccccc1I)N=C(Nc1nc3ccccc3o1)N2` (stereo not drawn), the half-life was 8.4 min.

Compound `Cc1ccc(CNc2nc(-c3ccccc3C(F)(F)F)nc3ccccc23)s1` registered a half-life of 1.7 min.

Take `O=C(NC1CC1)C1CCCN1C(=O)c1cccc(-c2ccccn2)c1` (stereo not drawn): the half-life is above 30 min.

`O=C(Nc1ccc(OC(F)(F)F)cc1)c1sccc1NCc1ccnc2ccccc12` registered a half-life of 18.7 min.

`O=C1CCCC2=C1C(c1[nH]ncc1Cl)N=C(Nc1nc3cc([S+](=O)([O-])N4CCCC4)ccc3o1)N2` (stereo not drawn) showed a half-life of 8 min.

As for `Nc1ncc(S(=O)(=O)N2CCOCC2)s1`, the half-life was above 30 min.

`N#Cc1nc(-c2cccc3ccccc23)oc1Nc1ccccc1` displayed a half-life above 30 min.

As for `Clc1ccc(Nc2nc(-c3ccncc3)nc3ccccc23)cc1Cl`, the half-life was determined as 15 min.

In the case of `Cc1ccc(S(=O)(=O)n2cc(C(=O)Nc3ccc(-c4ccccc4)cc3)c3ccccc32)cc1`, the half-life is 14 min.

Compound `N#Cc1ccc(NS(=O)(=O)c2ccc(NC(=O)Cc3ccc(Cl)c(Cl)c3)cc2)cc1` returned a half-life above 30 min.

Compound `Cc1ccc(S(=O)(=O)Nc2ccc(C(=O)Nc3nc(-c4ccccc4)cs3)c(Cl)c2)cc1` returned a half-life of 23 min.

Take `COc1ccc(Nc2ncnc3c2cnn3-c2ccc(C)cc2)cc1Cl`: the half-life was above 30 min.

In the case of `O=C(c1ccc(C(=O)N2CCC(N3CCCC3)CC2)c(Nc2ccccc2)c1)N1CCC(N2CCCC2)CC1`, the half-life was above 30 min.

`NC(=O)C1CCN(c2nc(-c3ccc4occc(=O)c4c3)cs2)CC1` came in with a half-life of 6.19 min.

In the case of `O=C(O)c1ccc(N2C(=O)/C(=C/c3ccc(-c4ccc([N+](=O)[O-])cc4)o3)C=C2c2ccccc2)cc1`, the half-life is above 30 min.

`O=C(Nc1ccc(C(=O)N2CCCC2)cc1)c1ccccc1F` came in with a half-life above 30 min.

As to `CCN(CCN(C)C)C(=O)C1CCN(S(=O)(=O)c2c(C)noc2/C=C/c2ccccc2F)CC1`, the half-life is above 30 min.

`COC(=O)c1ccnc(-c2cc(C(=O)Nc3ccc(C4(N)CC4)cc3)ccn2)c1`: the half-life was above 30 min.

`Oc1ccc(CNc2cccc(F)c2F)c2cccnc12`: the half-life was 6.35 min.

For the compound `Oc1ccc(CNc2ccccc2C(F)(F)F)c2cccnc12`, the half-life came out at 4.99 min.

In turn, `O=C(c1nc(-c2ccc(Cl)cc2Cl)c2cnccn12)N1CCOCC1` gave a half-life of 23.6 min.

The compound `NC(=O)C1CCN(c2nc(-c3ccccc3F)cs2)CC1` showed a half-life of 3.04 min.

For the compound `O=C(NCCCc1ccccc1)C1CCN(c2nc(-c3ccc(Br)cc3)cs2)CC1`, the half-life amounted to 2.96 min.

The compound `O=C(Nc1nc(-c2ccccc2)cs1)c1ccncc1NS(=O)(=O)c1ccc2c(c1)CCC2` came in with a half-life of 5.6 min.

As for `N#Cc1ccccc1-c1csc(N2CCC(C(N)=O)CC2)n1`, the half-life stood at 3.76 min.

As for `CCCNc1oc(-c2cccc3ccccc23)nc1C#N`, the half-life turned out to be 13 min.

Consider `COc1cccc(CNc2ccc(S(=O)(=O)Nc3ncccn3)cc2)c1O`, for which the half-life was above 30 min.

In turn, `O=C1CCc2cc(S(=O)(=O)Nc3ccc(F)c(Cl)c3)ccc2N1` showed a half-life of 20.5 min.

With `Cc1ccc(S(=O)(=O)Nc2ccccc2C(=O)Nc2nc(-c3ccccc3)c(Br)s2)cc1`, the half-life amounted to 10 min.

`COc1cccc(CNc2ccc(C(=O)Nc3nccs3)cc2)c1O` displayed a half-life above 30 min.

The compound `CCCCc1ccc(NC(=O)c2ccc3c(c2)N(S(C)(=O)=O)CC3)cc1` had a half-life of 4.38 min.

The compound `O=C(Nc1ccc(S(=O)(=O)Nc2nccs2)cc1)c1cccc2ccccc12` had a half-life above 30 min.

For the compound `O=C1Nc2ccccc2/C1=C\c1ccc(O)c(F)c1`, the half-life was found to be 20 min.

`CCC(CC)c1cc([C@H]2CN3CC[C@H]2C[C@@H]3CNC(C)=O)nc(-c2ccncc2)n1` returned a half-life of 10.9 min.

The compound `COc1ccc(NC(=O)c2[nH]c(C)c(C(C)=O)c2C)cc1S(=O)(=O)Nc1cccc(C#N)c1` yielded a half-life of 15 min.

Compound `CCCN1CNc2c(c(=O)[nH]c(=S)n2Cc2ccc(OC)c(OC)c2)C1` returned a half-life above 30 min.

On to `CN1CCN(C2=Nc3ccccc3Sc3ccc(Cl)cc32)CC1`, for which the half-life was 1.11 min.

With `CCCCCCCC/C=C\CCCCCCCC(=O)NCCO`, the half-life came to 2.33 min. Against the preceding compound, the half-life is about 2.1-fold higher.

Regarding `COCCNS(=O)(=O)c1cc(-c2nn3c(C)nnc3c3ccccc23)ccc1C`, the half-life stood at 4.77 min.

For the compound `COc1ccccc1C(=O)Nc1ccccc1C(=O)Nc1cccc(S(=O)(=O)C(F)(F)F)c1`, the half-life was above 30 min.

`Cc1ccc(N2CCN(c3cnn(-c4nc5ccccc5s4)c(=O)c3Cl)CC2C)cc1` (stereo not drawn) returned a half-life of 10.5 min.

Turning to `CNc1nc2c(s1)C(c1ccc(Cl)cc1)CC(=O)N2` (stereo not drawn), the half-life was 2.07 min.

`O=C(Nc1ccc(N2CCC(N3CCCCC3)CC2)c(C(=O)O)c1)c1ccc(Br)cc1`: the half-life is above 30 min.

The compound `COc1ccccc1C(=O)Nc1ccccc1C(=O)Nc1cccc(SC(F)(F)F)c1` returned a half-life of 18 min.

Compound `Cc1ccc2oc(NC3=NC(c4ccccc4Cl)C4=C(CCCC4=O)N3)nc2c1` (stereo not drawn) yielded a half-life above 30 min.

For the compound `O=S(=O)(Nc1nccs1)c1ccc(NCc2cccc(O)c2)cc1`, the half-life was above 30 min.

Compound `CN(C)c1ccc(-c2csc(N3CCC(C(N)=O)CC3)n2)cc1` came in with a half-life of 4.12 min.

Compound `CC(=O)N1CCc2c(sc3c2c(=O)n(-c2ccccc2Cl)c(=O)n3Cc2cccc(C)c2)C1` came in with a half-life of 1.41 min.

As to `CCc1nc2c(sc3nc4c(cc32)COC(C)(C)C4)c(=O)n1Cc1ccco1`, the half-life was 6.88 min.

Compound `Cc1cccc(-n2cnc3cc(C(=O)N4CCCCCC4)ccc32)c1` had a half-life of 2.9 min.

`FC(F)(F)c1ccc(N2CCN(C(=S)Nc3ccccn3)CC2)cc1`: the half-life was above 30 min.

In turn, `CCOc1cc2c(cc1OCC)CN(C(=O)c1cc3sccc3n1Cc1ccccc1)CC2` yielded a half-life of 2.8 min.

The compound `O=C(Nc1cccc(F)c1)c1cc(-c2ccc[nH]2)n[nH]1` yielded a half-life of 9.45 min.

As to `Cc1ccc(-c2cc(C(=O)Nc3ccc(S(=O)(=O)Nc4ccc(C#N)cc4)cc3)c3ccccc3n2)cc1C`, the half-life amounted to 15 min. Against the preceding compound, the half-life is about 1.6-fold higher.

With `CC(C)Oc1cccc(C2CC(=O)Nc3cc4c(cc32)OCO4)c1` (stereo not drawn), the half-life turned out to be 3.46 min.

`Cc1cc(C)c(CNC(=O)c2nc(-c3ccc(CN(C)C)cc3)cc3c2ccn3C(C)C)c(=O)[nH]1` returned a half-life above 30 min.

Regarding `CCOc1ccc(CCNC(=O)c2cc3sccc3n2Cc2ccccc2)c(F)c1OCC`, the half-life was found to be 1.8 min.

With `Cc1ccc2oc(NC3=NC4(CCCC4)C4=C(CCCC4=O)N3)nc2c1`, the half-life was 2.7 min.

The compound `C[C@H]1CCC[C@H](O)CCC/C=C/c2cc(O)cc(O)c2C(=O)O1` showed a half-life of 15.2 min.

Take `CC(=O)Nc1ccc(C(=O)Nc2ccc3c(c2)N(C2CCCC2)C(=O)c2ccccc2S3)cc1`: the half-life amounted to 2.21 min. Compared with the last compound, the half-life is about 6.9-fold lower.

`COc1ccccc1-c1nc(NCc2ccc(-c3cccnc3)cc2)c2ccccc2n1` came in with a half-life of 4.45 min.

In turn, `COc1cc(Cl)cn2c(-c3cccc(NC4CNC4)n3)cnc12` registered a half-life above 30 min.

For `O=C(NCc1ccco1)c1nc2nc(-c3cccs3)cc(C(F)(F)F)n2n1`, the half-life was above 30 min.

Take `Oc1c(CN2CCN(c3ccccn3)CC2)cc(Cl)c2cccnc12`: the half-life turned out to be 3.23 min.

`Cc1nc2ccc(C(=O)N3CCC4(CC3)CC(=O)c3c(cnn3C(C)C)C4)cc2[nH]1` had a half-life above 30 min.

On to `N=c1c2ccccc2nnn1-c1ccc(C(F)(F)F)cc1`, for which the half-life is above 30 min.

Compound `Clc1cccc(COc2cncc(N3CCNCC3)n2)c1` showed a half-life of 2.55 min.

The compound `COc1cccc(C(=O)Nc2nc(-c3nnn(-c4cccc(Cl)c4C)c3C)ns2)c1` came in with a half-life of 18.6 min.

Take `Fc1cnc(-c2ccccc2C(F)F)nc1NCc1ccc(-c2ccn[nH]2)cc1`: the half-life was 10 min.

Take `C[C@]12N[C@H](Cc3ccccc31)c1ccccc12`: the half-life is above 30 min.

`O=S(=O)(Nc1cnc2ccccc2c1)c1ccc(NCc2ccc(Br)cc2O)cc1`: the half-life came to 18 min.

Turning to `Cn1c2ccccc2c(=O)c2c(=O)n(-c3ccccc3)c(C3CCCCC3)nc21`, the half-life was above 30 min.

Turning to `CCCOC(=O)c1ccc(Oc2c(-c3ccc(O)cc3O)n[nH]c2C)cc1`, the half-life was 3.04 min.

`Cc1nc(NC2CCCCC2)c2nc(-c3ccccc3)n(CCN(C)C)c2n1`: the half-life was determined as 3.74 min.

`CCOC(=O)N1CCN(C(=O)Cn2sc3nc(C)cc(C)c3c2=O)CC1` gave a half-life above 30 min.

Turning to `O=C(NC1CCCc2c1cnn2-c1ccc(O)cc1)c1ccccn1` (stereo not drawn), the half-life was above 30 min.

With `Cc1cc(C)nc(NC(=S)N2CCN(c3ccncc3)CC2)c1`, the half-life was above 30 min.

The compound `CCC[C@H](NC(=O)/C(C#N)=C/c1cccc(Br)n1)c1ccccc1` returned a half-life above 30 min.

Consider `COc1ccc(C(=O)N2CCC3(CC2)CN(c2cccc(-c4ccccc4)c2)C3)cc1`, for which the half-life stood at 22 min.

As to `O=S(=O)(c1ccccc1)c1nnn2c1nc(NCc1cccs1)c1sccc12`, the half-life is 1.88 min.

For `Cc1cc(-c2nnc3n2CCCCC3)c(C)n1-c1cccc(C(F)(F)F)c1`, the half-life came out at 1.9 min. This half-life and that of the compound before are within 1.5-fold of each other.

Consider `Cc1ccc(OCCn2c(CCNC(=O)C3CCCCC3)nc3ccccc32)cc1`, for which the half-life turned out to be 1.6 min.

Consider `CCN1CCCC1CNC(=O)c1cc(S(=O)(=O)CC)c(N)cc1OC` (stereo not drawn), for which the half-life is above 30 min.

In the case of `CCOC(=O)C1(Cc2ccccc2C(F)(F)F)CCN(C2CCN(C(C)C)CC2)CC1`, the half-life was above 30 min.
